Assay in all cases: NCI tumour cell line growth inhibition, 48 h
Assay [1] relates to A498 renal.
Assay [2] relates to ACHN renal.
In assay [3] the test system is CCRF-CEM leukemia.
Assay [4] has as its system COLO 205 colon.
Assay [5] concerns DU-145 prostate.
Assay [6] has as its system EKVX NSCLC.
The subject of assay [7] is HCC-2998 colon.
For assay [8], the system named is HCT-15 colon.
Assay [9] has as its system HS 578T breast.
Assay [10] relates to IGROV1 ovarian.
The test system of assay [11] is K-562 leukemia.
The subject of assay [12] is KM12 colon.
Assay [13] deals with M14 melanoma.
Assay [14] relates to MOLT-4 leukemia.
Assay [15] deals with NCI-H23 lung.
Assay [16] relates to NCI-H460 lung.
Assay [17] has as its system OVCAR-4 ovarian.
Assay [18] concerns PC-3 prostate.
Assay [19] relates to RPMI-8226 leukemia.
Assay [20] relates to SF-268 CNS.
Assay [21] relates to UACC-257 melanoma.
Assay [22] relates to UACC-62 melanoma.
Assay [23] relates to UO-31 renal.
In assay [24] the test system is HCT-116 colon.
For assay [25], the system named is LOX IMVI melanoma.
In assay [26] the test system is NCI-H226 lung.
For assay [27], the system named is SR leukemia.
Assay [28] has as its system U251 CNS.
Assay [29] concerns 786-0 renal.
The subject of assay [30] is A549 NSCLC.
The subject of assay [31] is HL-60(TB) leukemia.
In assay [32] the test system is HOP-92 NSCLC.
Assay [33] concerns NCI-H522 lung.
The test system of assay [34] is SF-295 CNS.
Assay [35] deals with SK-MEL-28 melanoma.
Assay [36] has as its system SK-OV-3 ovarian.

Structures are written as SMILES. Values after ≈ are worked out from the molar mass of the structure shown. Values joined by “and” are separate entries in the source; they are usually repeats but may differ in a detail not shown here. Identical values can stand only once.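 Results reflect a 48-hour exposure of cells in 96-well plates to compound at five concentrations. At the GI50, growth is halved. TGI denotes the concentration required for complete inhibition of growth.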

The values that follow come from PubChem BioAssay (NCI).

As for `COc1ccc2c(ccc3c(C(=O)NCCCN(C)CCCNC(=O)c4cn(C)c5c4ccc4cc(OC)ccc45)cn(C)c32)c1`, the TGI was more than 100000 nM in [1]; 3020 nM in [2]; more than 100000 nM in assay [3]; 4870 nM in [4]; 3170 nM in assay [5]; 2920 nM in [6]. Besides, the TGI in assay [7] was 2970 nM; in assay [8] it was 2600 nM; in assay [9], 4780 nM; in [10], 2860 nM; in assay [11], more than 100000 nM; in assay [12], 2900 nM. The TGI in [13] is 2940 nM; in [14] it was more than 100000 nM; in [15] it was 2970 nM; in assay [16], 2790 nM; in assay [17], 3270 nM; in assay [18] it was 2880 nM. In addition, the TGI was determined as 5890 nM in assay [19]; 3380 nM in [20]; 2970 nM in assay [21]; 3150 nM in assay [22]; 3010 nM in assay [23].
For the molecule `O=C(Nc1cccc(-n2ccc3c(NC(=O)c4ccccc4)nccc32)c1)c1ccc(Cl)c(C(F)(F)F)c1`, the TGI was 17100 nM and > 100000 nM in [6]; 6770 nM and 50900 nM in assay [11]; 10200 nM and > 100000 nM in assay [26]; 6710 nM and 15700 nM in assay [27]. For the same molecule, the GI50 in assay [24] is 136 nM and 513 nM; in assay [25], 163 nM and 612 nM; in [16] it was 116 nM and 481 nM; in assay [18], 143 nM and 950 nM; in assay [28], 125 nM and 759 nM.
`COCCCC(NC(=O)C(CC(C)C)NC(=O)OCc1ccc(OC)cc1)C(=O)OC` (configuration not stated): the GI50 was 80.6 µg/mL (≈ 184 µM) in assay [29]; 61.1 µg/mL (≈ 139 µM) in assay [30]; 42.1 µg/mL (≈ 95.9 µM) in assay [3]; 77.6 µg/mL (≈ 177 µM) in [5]; 32.5 µg/mL (≈ 74.2 µM) in [7]; 26.9 µg/mL (≈ 61.3 µM) in [31]. Further, the GI50 was 40.8 µg/mL (≈ 93 µM) in assay [32]; 36 µg/mL (≈ 82.1 µM) in assay [11]; 96.4 µg/mL in assay [25]; 50.5 µg/mL (≈ 115 µM) in assay [13]; 39.4 µg/mL (≈ 89.9 µM) in assay [14]; 23 µg/mL in assay [16]. In addition, the GI50 was 59.8 µg/mL (≈ 136 µM) in assay [33]; 27 µg/mL (≈ 61.6 µM) in assay [19]; 83.3 µg/mL (≈ 190 µM) in [34]; 47.1 µg/mL (≈ 107 µM) in assay [35]; 71.6 µg/mL (≈ 163 µM) in [36]; 18.8 µg/mL (≈ 42.8 µM) in [27]. Further, in assay [22], the GI50 is 71.3 µg/mL (≈ 163 µM). For the same molecule, the TGI in assay [3] was 87.1 µg/mL; in assay [7] it was 75.1 µg/mL; in assay [31], 57.5 µg/mL (≈ 131 µM); in assay [32], 65.4 µg/mL (≈ 149 µM); in assay [11], 81.5 µg/mL; in [13], 85.3 µg/mL. In addition, the TGI in [14] was found to be 60.1 µg/mL; in assay [16] it was 46.2 µg/mL; in [19] it was 70 µg/mL; in assay [35], 76.6 µg/mL (≈ 175 µM); in [27], 42.5 µg/mL.
